Patent US20080167384A1, “Use of Zeaxanthin For the Treatment of Diseases of the Peripheral Retina” (priority 2005, published 2008)

Test: Trial of zeaxanthin supplementation: macular pigment density monitored by heterochromatic flicker photometry (HCFP)
Format: in vivo
Settings: Zeaxanthin 20 mg/day, 6-12 months
Method: The usefulness of zeaxanthin for the purposes of the present invention can be seen from the results of a trial with a duration of 6-12 months carried out with 46 subjects which were randomized to two treatment groups: Zeaxanthin, 20 mg/day (n=23), and Placebo (n=23). Macular pigment density (MPD) during this trial was monitored monthly using heterochromatic flicker photometry (HCFP) by independently measuring luminances at central and eccentric (5°=reference) locations. MPD is then calculated by subtracting the luminance at the reference (=eccentric) location from the luminance at the retinal centre.

SMILES: CC1=C(/C=C/C(C)=C/C=C/C(C)=C/C=C/C=C(C)/C=C/C=C(C)/C=C/C2=C(C)C[C@@H](O)CC2(C)C)C(C)(C)C[C@H](O)C1 [zeaxanthin]
- rise of luminance at the eccentric reference location (HCFP, eccentric (5°) reference location): approximately 8%
- rise of luminance at the central location (HCFP, retinal centre): approximately 8%
- increase of macular pigment density (MPD) computed with the pre-supplementation eccentric reference luminance (actual central luminances minus pre-supplementation eccentric reference luminance): about 11%
